In patent publication US4820834A, “Benzodiazepine analogs” (priority 1987, dated 1989):
Where two headings read alike, the source gives them in different places.

What was measured:
[1] = biological target: T1, Gastrin receptor (gastric glands) (Cavia porcellus, UniProt H0VZC5); assay: Gastrin Receptor Binding in Guinea Pig Gastric Glands; design: species or system guinea pig (male Hartley); conditions: 25° C., 30 minutes
T1 construct: The washed guinea pig gastric glands prepared as above were resuspended; from tissue; host or cells: guinea pig gastric mucosal glands (male Hartley)
T1 sequence (H0VZC5 1-426): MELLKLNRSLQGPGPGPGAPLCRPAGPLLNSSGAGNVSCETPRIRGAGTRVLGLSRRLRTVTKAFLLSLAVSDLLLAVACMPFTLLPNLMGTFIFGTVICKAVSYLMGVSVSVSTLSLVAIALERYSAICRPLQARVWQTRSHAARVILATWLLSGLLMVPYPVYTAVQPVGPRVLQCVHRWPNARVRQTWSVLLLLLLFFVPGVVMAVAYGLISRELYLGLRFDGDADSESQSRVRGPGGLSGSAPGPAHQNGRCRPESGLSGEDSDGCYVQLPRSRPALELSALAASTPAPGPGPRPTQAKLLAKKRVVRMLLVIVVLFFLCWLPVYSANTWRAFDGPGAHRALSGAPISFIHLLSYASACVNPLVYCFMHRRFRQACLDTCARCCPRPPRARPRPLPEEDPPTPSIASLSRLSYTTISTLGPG

[2] = biological target: T2, CCK receptor (brain, cerebral cortex) (Cavia porcellus, UniProt H0VZC5); assay: biochemical; assay type: binding, Male Hartley guinea pigs; conditions: guinea pig cerebral cortex, ^125 I-CCK-33, 25° C., 2 hours
T2 construct: Cerebral cortex was dissected and used as a receptor source; from tissue; host or cells: guinea pig cerebral cortex membranes (male Hartley)
T2 sequence (H0VZC5 1-426): T1 sequence (H0VZC5 1-426)
Protocol: 2. CCK Recepto Binding (Brain)
CCK-33 was radiolabeled and the binding was Performed according to the description for the Pancreas method with modifications according to Saito et al., J. Neurochem.
Cerebral cortex was dissected and used as a receptor source. Each gram of fresh guinea pig brain tissue was homogenized in 10 ml of Tris/Trizma buffer with a Brinkman polytron PT-10. The homogenates were centrifuged at 42,000 g for 15 minutes. Pellets were resuspended in Tris Buffer, centrifuged as above and resuspended in 200 volumes of binding assay buffer (10 mM N-2-hydroxyethyl-piperazine-N'-2-ethane sulfonic acid (HEPES), 5 mM MgCl2, 0.25 mg/ml bacitracin, 1 mM ethylene glycol-bis-(β-aminoethylether-N,N'-tetraacetic acid) (EGTA), and 0.4% bovine serum albumin (BSA)). […] All assays were run in duplicate or triplicate. The reaction mixtures were incubated at 25° C. for 2 hours and centrifuged in a Beckman Microfuge (4 minutes) immediately after adding 1 ml of ice-cold incubation buffer. The supernatant was aspirated and discarded, pellets were counted with a Beckman gamma 5000.

[3] = IC50 ^125 I-Gastrin Gastric Glands
[4] = ^125 I-gastrin, read-out: IC50 ^125 I-Gastrin Gastric Glands
[5] = read-out: IC50 ^125 I-CCK Brain

With CC(C)(C)c1ccc(C(=O)NC2N=C(c3ccccc3)c3ccccc3NC2=O)cc1 (racemic) [Example 146, 1,3-Dihydro-3-(RS)-(4'-tert-butylbenzoylamino)-5-phenyl-2H-1,4-benzodiazepin-2-one] the IC50 [1, 3] was 40 µM and the IC50 ([2]; IC50 ^125 I-CCK Brain) was 100 µM.
For O=C(NC1N=C(c2ccccc2)c2ccccc2NC1=O)c1cc(Cl)cc(Cl)c1 (racemic) [Example 147, 3-(RS)-(3,5-Dichlorobenzoylamino)1,3-dihydro-5-phenyl-2H-1,4-benzodiazepin-2-one], the IC50 [1, 3] was 180 µM and the IC50 ([2]; IC50 ^125 I-CCK Brain) was greater than 100 µM.
In the case of O=C(NC1N=C(c2ccccc2)c2ccccc2NC1=O)c1ccc(O)cc1 (racemic) [Example 148, 1-3-Dihydro-3-(RS)-(p-Hydroxybenzoylamino)-5-phenyl-2H-1,4-benzodiazepin-2-one], the IC50 [1, 3] is reported as 31 µM and the IC50 ([2]; IC50 ^125 I-CCK Brain) is reported as 100 µM.
With CN(C)c1ccc(C(=O)NC2N=C(c3ccccc3F)c3ccccc3NC2=O)cc1 (racemic) [Example 152, 1,3-Dihydro-3(RS)-(p-dimethylaminobenzoylamino)-5-(2-fluorophenyl)-2H-1,4-benzodiazepin-2-one] the IC50 [1, 3] was greater than 100 µM and the IC50 ([2]; IC50 ^125 I-CCK Brain) was greater than 100 µM.
COc1ccc(C(=O)NC2N=C(c3ccccc3F)c3ccccc3NC2=O)cc1OC (racemic) [Example 153, 1,3-Dihydro-3(RS)-(3,4-dimethoxybenzoylamino)-5-(2-fluorophenyl)-2H-1,4-benzodiazepin-2-one] gave an IC50 [1, 3] greater than 40 µM and an IC50 ([2]; IC50 ^125 I-CCK Brain) greater than 40 µM.
Molecule O=C(NC1N=C(c2ccccc2)c2ccccc2NC1=O)c1cccc(SC(F)(F)F)c1 (racemic) [Example 155, 1,3-Dihydro-5-phenyl-3(RS)-(3-trifluoromethylthiobenzoylamino)-2H-1,4-benzodiazepin-2-one] has an IC50 [1, 3] of 128 µM and an IC50 ([2]; IC50 ^125 I-CCK Brain) greater than 100 µM.
O=C(NC1N=C(c2ccccc2F)c2ccccc2NC1=O)c1ccc[nH]1 (racemic) [Example 158, 1,3-Dihydro-5-(2-fluorophenyl)-3(RS)-(pyrrole-2-carbonylamino)-2H-1,4-benzodiazepin-2-one] gave an IC50 [1, 3] of 25 µM and an IC50 ([2]; IC50 ^125 I-CCK Brain) of 100 µM.
O=C(NC1N=C(c2ccccc2)c2ccccc2NC1=O)c1ccc2ccccc2c1 (racemic) [Example 160, 1,3-Dihydro-3(RS)-(2-naphthoylamino)-5-phenyl-2H-1,4-benzodiazepin-2-one] gave an IC50 [1, 3] of 14 µM and an IC50 ([2]; IC50 ^125 I-CCK Brain) of 12 µM.
In the case of CCCc1ccc(C(=O)NC2N=C(c3ccccc3)c3ccccc3NC2=O)cc1 (racemic) [Example 163, 1,3-Dihydro-5-phenyl-3(RS)-(4-α-propylbenzoylamino)-2H-1,4-benzodiazepin-2-one], the IC50 [1, 3] is reported as 80 µM and the IC50 ([2]; IC50 ^125 I-CCK Brain) is reported as 12 µM.
O=C(NC1N=C(c2ccccc2)c2ccccc2NC1=O)c1ccc(-c2ccccc2)cc1 (racemic) [Example 164, 1,3-Dihydro-5-phenyl-3(RS)-(4-phenylbenzoylamino)-2H-1,4-benzodiazepin-2-one] was tested, and the IC50 [1, 3] was greater than 100 µM and the IC50 ([2]; IC50 ^125 I-CCK Brain) was 18 µM.
CCCCCc1ccc(C(=O)NC2N=C(c3ccccc3)c3ccccc3NC2=O)cc1 (racemic) [Example 165, 1,3-Dihydro-3(RS)-(4-n-pentylbenzoylamino)-5-phenyl-2H-1,4-benzodiazepin-2-one] showed an IC50 [1, 3] greater than 100 µM and an IC50 ([2]; IC50 ^125 I-CCK Brain) of 8 µM.
O=C(NC1N=C(c2ccccc2)c2ccccc2NC1=O)c1cccc2ccccc12 (racemic) [Example 166, 1,3-Dihydro-3(RS)-(1-naphthoylamino)-5-phenyl-2H-1,4-benzodiazepin-2-one] gave an IC50 [1, 3] of 29 µM and an IC50 ([2]; IC50 ^125 I-CCK Brain) of 12 µM.
O=C(NC1N=C(c2ccccc2F)c2ccccc2NC1=O)c1ccccc1 (racemic) [Example 173, 1,3-Dihydro-5-(2-fluorophenyl)-3(RS)-phenylcarbonylamino-2H-1,4-benzodiazepin-2-one] showed an IC50 [1, 3] of 28 µM and an IC50 ([2]; IC50 ^125 I-CCK Brain) greater than 40 µM.
For O=C(NC1N=C(c2ccccc2F)c2ccccc2NC1=O)c1ccccc1Cl (racemic) [Example 174, 1,3-Dihydro-5-(2-fluorophenyl)-3(RS)-(2-chlorophenyl)carbonylamino-2H-1,4-benzodiazepin-2-one], the IC50 [1, 3] was 18 µM and the IC50 ([2]; IC50 ^125 I-CCK Brain) was greater than 40 µM.
Work on O=C(NC1N=C(c2ccccc2F)c2ccccc2N(C(=O)c2ccc(Cl)cc2)C1=O)c1ccc(Cl)cc1 (racemic) [Example 177, 1-(4-Chlorophenyl)carbonyl-1,3-dihydro-5-(2-fluorophenyl)-3(RS)-(4-chlorophenyl)carbonylamino-2H-1,4-benzodiazepin-2-one] yielded an IC50 [1, 3] of 0.55 µM and an IC50 ([2]; IC50 ^125 I-CCK Brain) of 3.7 µM.
O=C(Nc1ccc(Cl)cc1)NC1N=C(c2ccccc2F)c2ccccc2NC1=O (racemic) [Example 182, 1,3-Dihydro-3(RS)-(4-chlorophenyl)aminocarbonylamino-5-(2-fluorophenyl)-2H-1,4-benzodiazepin-2-one] was tested, and the IC50 [1, 3] was 0.26 µM and the IC50 ([2]; IC50 ^125 I-CCK Brain) was 0.3 µM.
N[C@@H](Cc1ccccc1)C(=O)NC1N=C(c2ccccc2)c2ccccc2NC1=O (single isomer, unassigned) [Example 186] gave an IC50 [1, 4] greater than 100 µM and an IC50 [2, 5] greater than 100 µM.
CCN(CC)C(=O)C(C)N1C(=O)C(NC(=O)Nc2ccc(Cl)cc2)N=C(c2ccccc2)c2ccccc21 (single isomer, unassigned) [Example 249, 3-((((4-Chlorophenyl)amino)carbonyl)amino)-N,N,-diethyl-2,3-dihydro-alpha-methyl-2-oxo-5-phenyl-1H-1,4-benzodiazepine-1-acetamide] gave an IC50 [1, 4] of 0.012 µM and an IC50 [2, 5] of 0.022 µM.
CN1C(=O)[C@@H](NC(=O)[C@@H](N)Cc2ccccc2)N=C(c2ccccc2)c2ccccc21 [Example 84a, 3(S)-(2(S)-amino-3-phenylpropanoylamino)-1,3-dihydro-1-methyl-5-phenyl-2H-1,4-benzodiazepin-2-one] was tested, and the IC50 [1, 4] was greater than 40 µM and the IC50 ([2]; IC50 ^125 I-CCK Brain) was greater than 40 µM.
CN1C(=O)[C@H](NC(=O)[C@@H](N)Cc2ccccc2)N=C(c2ccccc2)c2ccccc21 [Example 84b, 3(R)-(2(S)-amino-3-phenylpropanoylamino)-1,3-dihydro-1-methyl-5-phenyl-2H-1,4-benzodiazepin-2-one] gave an IC50 [1, 4] of 55 µM and an IC50 ([2]; IC50 ^125 I-CCK Brain) greater than 100 µM.
With CN1C(=O)[C@H](N)N=C(c2ccccc2)c2ccccc21 [Example 85b, 3(R)-(+)-3-amino-1,3-dihydro-1-methyl-5-phenyl-2H-1,4-benzodiazepin-2-one] the IC50 [1, 3] was greater than 100 µM and the IC50 ([2]; IC50 ^125 I-CCK Brain) was greater than 100 µM.
For CN1C(=O)[C@@H](NC(=O)c2ccccc2Br)N=C(c2ccccc2F)c2ccccc21 [Example 161, 3(S)-(-)-3-(2-Bromobenzoylamino)-1,3-dihydro-5-(2-fluorophenyl)-1-methyl-2H-1,4-benzodiazepin-2-one], the IC50 [1, 4] was 19 µM and the IC50 ([2]; IC50 ^125 I-CCK Brain) was 70 µM.
With CN1C(=O)[C@@H](NC(=O)c2cccc(I)c2)N=C(c2ccccc2F)c2ccccc21 [Example 167, 3(S)-(+)-1,3-Dihydro-5-(2-fluorophenyl)-3-(3-iodobenzoylamino)-1-methyl-2H-1,4-benzodiazepin-2-one] the IC50 [1, 4] was 0.39 µM and the IC50 [2, 5] was 1.7 µM.
CN1C(=O)[C@H](NC(=O)c2ccccc2Br)N=C(c2ccccc2F)c2ccccc21 [Example 171, 3(R)-(+)-3-(2-Bromobenzoylamino)-1,3-dihydro-5-(2-fluorophenyl)-1-methyl-2H-1,4-benzodiazepin-2-one] was tested, and the IC50 [1, 4] was 5.8 µM and the IC50 ([2]; IC50 ^125 I-CCK Brain) was 5.6 µM.
CCOC(=O)CN1C(=O)C(NC(=O)c2ccccc2Cl)N=C(c2ccccc2F)c2ccccc21 (centres unmarked) [Example 188, 3-(2'-Chlorobenzoylamino)-1-ethoxycarbonylmethyl-5-(2'-fluorophenyl)-2H-1,4-benzodiazepine-2-one] gave an IC50 [1, 3] of 1.3 µM and an IC50 ([2]; IC50 ^125 I-CCK Brain) of 3.2 µM.
In the case of CN1C(=O)[C@@H](NC(=O)C=Cc2ccccc2)N=C(c2ccccc2)c2ccccc21 [Example 192, (S)-N-(2,3-Dihydro-1-methyl-2-oxo-5-phenyl-1H-1,4-benzodiazeoin-3-yl)-3-phenyl-2-propenamide], the IC50 [1, 4] is reported as 0.18 µM and the IC50 [2, 5] is reported as 0.64 µM.
Molecule CN1C(=O)[C@H](NC(=O)C2CCCCC2)N=C(c2ccccc2)c2ccccc21 [Example 198, (R)-N-(2,3-Dihydro-1-methyl-2-oxo-5-phenyl-1H-1,4-benzodiazepin-3-yl)-cyclohexanecarboxamide] has an IC50 [1, 4] of 1.5 µM and an IC50 [2, 5] of 18 µM.
CN1C(=O)[C@@H](NC(=O)[C@@H](Cc2ccccc2)NC(=O)OC(C)(C)C)N=C(c2ccccc2F)c2ccccc21 [Example 232, (S-(R*,S*))-(2-((5-(2-Fluorophenyl)-2,3-dihydro-1-methyl-2-oxo-1H-1,4-benzodiazepin-3-yl)amino)-2-oxo-1-(phenylmethyl)ethyl)-carbamic acid 1,1-dimethylethyl ester] was tested, and the IC50 [1, 4] was 1.2 µM and the IC50 [2, 5] was 1 µM.
